Some test systems named below: T-47D breast; BT-549 breast; RXF 393 renal; MOLT-4 leukemia; ACHN renal; A498 renal; NCI-H226 lung; NCI-H460 lung; NCI-H23 lung; EKVX NSCLC; HCC-2998 colon; A549 NSCLC; TK-10 renal; SK-OV-3 ovarian.
Assay in all cases: NCI anticancer screen, dose series, 48 h

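Where inhibition never reached the appropriate level, the endpoint shown equals the highest concentration tested. Otherwise, values were interpolated linearly from a five-concentration, 48-hour dose response in 96-well plates. TGI is the concentration that stops growth completely.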

We go through nine molecules from PubChem BioAssay (NCI).

Take `CCOC(=O)C1=NOC2(C=C(Br)C(=O)C(Br)=C2)C1`: the TGI is 3.99 µM with T-47D breast; 17.8 µM in the experiment with BT-549 breast; 3.54 µM in the experiment on RXF 393 renal; 0.304 µM with MOLT-4 leukemia; 2.25 µM in the experiment with ACHN renal; 38 µM in the experiment on A498 renal. For the same molecule, the TGI with NCI-H226 lung came out at 52.9 µM; with NCI-H460 lung, 15 µM; with NCI-H23 lung, 9.41 µM; in the experiment on EKVX NSCLC, 5.45 µM; in the experiment with HCC-2998 colon it was 3.22 µM; in the experiment with A549 NSCLC it was 59 µM. Further, the TGI in the experiment with TK-10 renal came to 2.27 µM; with SK-OV-3 ovarian, 21.1 µM.
As to `COC1=CC(=O)C2=C(C1=O)[C@H]1CC[C@]3(C)[C@@H](O)CC[C@H]3[C@@H]1CC2`, the TGI in the experiment on T-47D breast is 38.4 µM; in the experiment with BT-549 breast, 31.8 µM; in the experiment on RXF 393 renal it was 46.5 µM; in the experiment with MOLT-4 leukemia, 20.8 µM; in the experiment with ACHN renal it was 31.9 µM; in the experiment on A498 renal, over 100 µM. The TGI with NCI-H226 lung amounted to 31.5 µM; in the experiment on NCI-H460 lung, 35.8 µM; with NCI-H23 lung, 56.8 µM; in the experiment with EKVX NSCLC, 30.5 µM; in the experiment with HCC-2998 colon it was 42.8 µM; in the experiment with A549 NSCLC, 34.7 µM. For the same molecule, the TGI was 63.8 µM in the experiment on TK-10 renal and over 100 µM in the experiment with SK-OV-3 ovarian.
Regarding `NCCSS(=O)(=O)CCN`, the TGI with T-47D breast, in the experiment with BT-549 breast, with RXF 393 renal, in the experiment with MOLT-4 leukemia, with ACHN renal and in the experiment with A498 renal was over 100 µM each time. Moreover, the TGI in the experiment with NCI-H226 lung, in the experiment with NCI-H460 lung, in the experiment with NCI-H23 lung, in the experiment on EKVX NSCLC, in the experiment on HCC-2998 colon and in the experiment with A549 NSCLC was over 100 µM in each case. Further, the TGI in the experiment on TK-10 renal and in the experiment on SK-OV-3 ovarian was over 100 µM each time.
In the case of `C=CCN1C(=O)/C(=C/c2cccs2)N=C1SC/C=C/C`, the TGI in the experiment with T-47D breast is over 100 µM; in the experiment with BT-549 breast, over 100 µM; in the experiment on RXF 393 renal, 85.2 µM; in the experiment with MOLT-4 leukemia, 44.6 µM; with ACHN renal, over 100 µM; in the experiment on A498 renal, 98.8 µM. The TGI in the experiment with NCI-H226 lung, in the experiment with NCI-H460 lung, in the experiment with NCI-H23 lung, in the experiment on EKVX NSCLC, in the experiment on HCC-2998 colon and in the experiment with A549 NSCLC was over 100 µM each time. Moreover, the TGI in the experiment with TK-10 renal and in the experiment with SK-OV-3 ovarian was over 100 µM in each case.
For the molecule `CN(C)CCCN1c2ccccc2Sc2ccc3ccccc3c21`, the TGI in the experiment with T-47D breast worked out at 5.65 µM; in the experiment on BT-549 breast, 26.3 µM; in the experiment with RXF 393 renal, 3.92 µM; in the experiment on MOLT-4 leukemia, 10.1 µM; in the experiment with ACHN renal, 20.9 µM; in the experiment with A498 renal, 14 µM. For the same molecule, the TGI in the experiment on NCI-H226 lung came to 19 µM; with NCI-H460 lung, 7.66 µM; in the experiment with NCI-H23 lung it was 28.2 µM; with EKVX NSCLC, 23.9 µM; in the experiment on HCC-2998 colon it was 3.04 µM; in the experiment on A549 NSCLC it was 26.6 µM. Further, the TGI was 17.7 µM in the experiment on TK-10 renal and 27.5 µM in the experiment on SK-OV-3 ovarian.
With `CCOC(=O)c1c(C)nc2c1c(CN(C)C)c(O)c1[nH]c(C)c(C)nc12`, the TGI in the experiment on T-47D breast was 74.1 µM; in the experiment on BT-549 breast, 76 µM; with RXF 393 renal, 65.7 µM; in the experiment with MOLT-4 leukemia, 85.6 µM; with ACHN renal, 69.9 µM; with A498 renal, 40 µM. The TGI in the experiment on NCI-H226 lung was 62.1 µM; with NCI-H460 lung, 61.1 µM; in the experiment on NCI-H23 lung, 89.3 µM; in the experiment with EKVX NSCLC it was 92 µM; with HCC-2998 colon it was 51 µM; with A549 NSCLC it was over 100 µM. Further, the TGI was 72.8 µM in the experiment with TK-10 renal and 92.3 µM with SK-OV-3 ovarian.
Turning to `CC1=NN(C(=O)c2ccncc2)C(=O)C1`, the TGI in the experiment on T-47D breast, with BT-549 breast, in the experiment with RXF 393 renal, in the experiment on MOLT-4 leukemia, in the experiment on ACHN renal and with A498 renal was over 100 µM each time. Further, the TGI in the experiment on NCI-H226 lung, in the experiment on NCI-H460 lung, with NCI-H23 lung, in the experiment on EKVX NSCLC, with HCC-2998 colon and in the experiment with A549 NSCLC was over 100 µM in each case. Besides, the TGI in the experiment with TK-10 renal and with SK-OV-3 ovarian was over 100 µM each time.
With `COc1c(Br)cc2c(c1OC)C(Br)CCC(Br)(Br)C2=O` (stereo unspecified), the TGI was 4.84 µM in the experiment with T-47D breast; 1.37 µM in the experiment with BT-549 breast; 1.82 µM with RXF 393 renal; 5.73 µM in the experiment with MOLT-4 leukemia; 5.21 µM in the experiment with ACHN renal; 12.3 µM in the experiment on A498 renal. The TGI in the experiment on NCI-H226 lung was determined as 5.84 µM; in the experiment with NCI-H460 lung it was 8.92 µM; with NCI-H23 lung it was 3.71 µM; with EKVX NSCLC, 14.6 µM; in the experiment with HCC-2998 colon, 16.6 µM; with A549 NSCLC, 16.2 µM. For the same molecule, the TGI with TK-10 renal is 8.39 µM; with SK-OV-3 ovarian it was 10.5 µM.
Consider `CC(C)(C)c1cc2c(OC/C=C/c3ccccc3)c(c1)Cc1cc(C(C#N)(OC/C=C/c3ccccc3)OC/C=C/c3ccccc3)cc(c1OC/C=C\c1ccccc1)Cc1cc(C(C)(C)C)cc(c1OC/C=C/c1ccccc1)Cc1cc(C(C#N)(OC/C=C\c3ccccc3)OC/C=C/c3ccccc3)cc(c1OC/C=C\c1ccccc1)C2` (stereo unspecified), for which the TGI in the experiment on T-47D breast, in the experiment on BT-549 breast, in the experiment on RXF 393 renal, in the experiment on MOLT-4 leukemia, with ACHN renal and with A498 renal was over 100 µM throughout. Moreover, the TGI in the experiment on NCI-H226 lung, in the experiment with NCI-H460 lung, in the experiment on NCI-H23 lung, with EKVX NSCLC, in the experiment on HCC-2998 colon and in the experiment with A549 NSCLC was over 100 µM each time. For the same molecule, the TGI with TK-10 renal is 54.3 µM; with SK-OV-3 ovarian, over 100 µM.
